Experimental findings from US5482971A, “Beta3 -adrenergic agents and their use in pharmaceutical compositions” (American Cyanamid Company, priority 1993, dated 1996) are described below.

Experiment [1] deals with T1, beta3 -adrenergic receptor (Rattus norvegicus, UniProt P26255).
T1 construct: Rat epididymal fat pads are excised and placed in 0.9% saline; from tissue; host or cells: collagenase-isolated adipocytes from rat epididymal fat pads
The experiment is described as follows: β3-effect: stimulation of adipocyte lipolysis (rat epididymal fat pad cells, glycerol release). The experiment is classed as cell-based. Particulars: rat epididymal adipocytes, 37° C., 30 minutes; concentration giving 50% of the maximum rate of lipolysis of that compound. Here is the method: (§1) Selectivity of a compound is determined using the following procedures.
The β3 -effect of the compounds is determined by their ability to stimulate adipocyte lipolysis. Rat epididymal fat pads are excised and placed in 0.9% saline. Four grams of tissue is transferred to a flask with 20 ml of aerated Krebs-Henseleit bicarbonate (KHB) buffer containing 3% fatty acid-free bovine serum albumin to which 75 mg of crude bacterial collagenase (Worthington) has been added. The tissue is incubated for about 45 minutes at 37° C. with gentle shaking. The cells are then washed three times with two volumes of KHB buffer, filtered through two layers of gauze, and brought to a final volume of 80 ml with KHB buffer. One ml aliquots of the cell suspension is added to plastic test tubes containing the appropriate additions of vehicle or compound. The cells are gassed for 1 minute with 95%O2 -5%CO2, capped, and incubated at 37° C. with continuous shaking for a total of 30 minutes. The reaction is stopped by adding 0.1 ml of 30% perchloric acid and 0.1 ml of chloroform. […] The amount of glycerol generated from the hydrolysis of endogenous triglycerides is determined in a coupled-enzyme spectrophotometric assay. […] The amount of NADH generated, which is proportional to the amount of glycerol, is determined by the increase in absorbance at 340 nm. […]

Experiment [2] concerns the target T2, beta1 -adrenergic receptor (Rattus norvegicus, UniProt P18090).
T2 construct: membranes from rat heart; from tissue; host or cells: rat heart membranes
Nature of the experiment: Heart binding: β1-effect, membranes from rat heart, [125I]iodocyanopindolol. The conditions noted are these: incubation 1 hour. On the procedure:
as §1
(§2) Binding assays for β1 -effect are carried out by the use of membranes from rat heart, and β2 -effect by the use of membranes from rat lung by the method described in Neve, et at., J. Pharmacol. Exp. Ther., 1985, 235, 657-664 with the following exceptions:
(§3) 1. the incubation volume is 0.5 ml,
(§4) 2. the incubation time is 1 hour,
(§5) 3. the radioligand is [^125 I]iodocyanopindolol,
(§6) 4. (-)-isoproterenol (50 μM) is used to define specific binding, and
(§7) 5. the filters are washed at 4° C.

Experiment [3] has as its target T3, beta2 -adrenergic receptor (Rattus norvegicus, UniProt P10608).
T3 construct: membranes from rat lung; from tissue; host or cells: rat lung membranes
Nature of the experiment: Lung binding: β2-effect, membranes from rat lung, [125I]iodocyanopindolol. The conditions noted are these: incubation 1 hour. Here is the method: as §1, §2, §3, §4, §5, §6, §7

Structures are written as SMILES.

T1 sequence (P26255 whole entry): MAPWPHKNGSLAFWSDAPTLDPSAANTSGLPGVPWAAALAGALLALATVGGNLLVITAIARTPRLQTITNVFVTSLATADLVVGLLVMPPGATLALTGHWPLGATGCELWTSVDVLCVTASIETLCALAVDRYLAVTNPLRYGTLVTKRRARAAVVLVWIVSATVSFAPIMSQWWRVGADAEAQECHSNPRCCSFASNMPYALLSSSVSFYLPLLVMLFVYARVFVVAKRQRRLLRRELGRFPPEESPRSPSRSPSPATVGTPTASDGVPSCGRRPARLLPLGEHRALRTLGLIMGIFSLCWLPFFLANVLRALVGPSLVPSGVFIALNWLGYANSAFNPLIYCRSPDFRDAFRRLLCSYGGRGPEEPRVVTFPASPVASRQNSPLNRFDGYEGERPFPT
T2 sequence (P18090 whole entry): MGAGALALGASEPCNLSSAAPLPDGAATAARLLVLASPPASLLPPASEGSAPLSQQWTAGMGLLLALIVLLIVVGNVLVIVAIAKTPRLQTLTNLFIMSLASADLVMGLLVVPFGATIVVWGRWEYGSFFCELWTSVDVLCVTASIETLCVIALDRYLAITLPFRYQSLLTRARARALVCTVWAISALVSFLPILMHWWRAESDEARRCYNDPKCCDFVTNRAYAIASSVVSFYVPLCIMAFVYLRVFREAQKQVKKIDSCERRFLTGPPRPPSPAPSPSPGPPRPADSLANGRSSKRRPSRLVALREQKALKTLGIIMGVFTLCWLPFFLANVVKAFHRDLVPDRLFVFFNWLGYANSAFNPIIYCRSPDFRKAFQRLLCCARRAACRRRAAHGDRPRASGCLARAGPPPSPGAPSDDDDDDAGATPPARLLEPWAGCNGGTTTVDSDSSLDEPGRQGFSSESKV
T3 sequence (P10608 whole entry): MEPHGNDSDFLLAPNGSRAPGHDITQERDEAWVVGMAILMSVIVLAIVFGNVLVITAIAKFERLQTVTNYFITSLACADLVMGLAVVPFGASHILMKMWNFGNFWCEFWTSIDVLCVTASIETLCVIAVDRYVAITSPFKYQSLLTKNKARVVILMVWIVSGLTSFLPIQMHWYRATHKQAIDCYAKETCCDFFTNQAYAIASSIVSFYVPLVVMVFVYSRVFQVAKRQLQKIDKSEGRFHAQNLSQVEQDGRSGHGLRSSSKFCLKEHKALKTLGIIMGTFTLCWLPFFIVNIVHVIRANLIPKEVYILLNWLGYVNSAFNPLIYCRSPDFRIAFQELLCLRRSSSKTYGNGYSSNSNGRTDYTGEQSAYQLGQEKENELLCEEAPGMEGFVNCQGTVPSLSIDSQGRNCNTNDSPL

The EC50 is the concentration at which the effect is half-maximal. Higher therefore signals lower potency in that assay. In general, IC50 refers to the concentration that gives 50% inhibition. Read a high IC50 as weaker potency in that assay. The compound `C[C@H](CCc1ccc2c(c1)OC(C(=O)O)(C(=O)O)O2)NC[C@H](O)c1cccc(Cl)c1` [Example 3, Disodium (R,R)-5-((3-(2-(3-chlorophenyl)-2-hydroxyethyl)amino)butyl)-1,3-benzodioxole-2,2-dicarboxylate] returned an EC50 in experiment [1] of 17 nM. Moreover, the IC50 came to 19000 nM in experiment [2] and 20000 nM in experiment [3].
